Values of other authors in publication PMC11678311, “Log BB Prediction Models Using TLC and HPLC Retention Values as Protein Affinity Data” (Pharmaceutics, 2024).

Conditions: drugs highly bound to plasma proteins whose log BB may be less than zero

Row | Structure (SMILES) | penetration of the blood–brain barrier / central action
1 | CC(C)Cc1ccc(C(C)C(=O)O)cc1 (centres unmarked) [ibuprofen] | cross the blood–brain barrier in an unbound state and act centrally
2 | Cc1ncc2n1-c1ccc(Cl)cc1C(c1ccccc1F)=NC2 [midazolam] | cross the blood–brain barrier in an unbound state and act centrally
